Earlier results as cited in patent US11192861B2, “Human plasma kallikrein inhibitors” (BioCryst Pharmaceuticals, Inc., priority 2014, dated 2021).

Test system: hereditary angioedema (HAE)

Molecule	edema in patients with hereditary angioedema (patients with HAE)	effectiveness in treating HAE (in vivo)
ecallantide [DX-88]	alleviates edema	
NC(N)=NCCC[C@@H](N)C(=O)N[C@@H](CCCN=C(N)N)C(=O)N1CCC[C@H]1C(=O)N1C[C@H](O)C[C@H]1C(=O)NCC(=O)N[C@@H](Cc1cccs1)C(=O)N[C@@H](CO)C(=O)N1Cc2ccccc2C[C@@H]1C(=O)N1[C@H](C(=O)N[C@@H](CCCN=C(N)N)C(=O)O)C[C@@H]2CCCC[C@@H]21 [Icatibant]		effective in treating HAE
